Laboratory results taken from patent US11813340B2, “PSMA targeted radiohalogenated urea-polyaminocarboxylates for cancer radiotherapy” (The Johns Hopkins University, priority 2018, dated 2023).
Entries after “also recorded” stand apart in the source; their conditions may differ.

How the values were obtained:
[1] = system: PSMA + PC3-PIP and PSMA-PC3-flu flank xenografts; test: Biodistribution of At-211 labeled PSMA inhibitors with and without cold blocking agent (Tables 6-8); format: in vivo, athymic mice
Description: Organs were harvested 1, 4, and 24 h post-injection (n=5 per time point).

[2] = system: PSMA+PC3-PIP and PSMA-PC3-flu flank xenografts; test: Biodistribution of [125I/211At]2 and 3 with and without co-injection of DCIBzL (Example 6); format: in vivo, athymic mice
Description: Final compounds were purified by HPLC.

PSMA+ PC3-PIP = test: Efficacy in subcutaneous (SC) PSMA+ PC3-PIP model; format: in vivo, NOD/SCID/IL-2rγ−/− (NSG) mice; conditions: single intravenous injection of different doses; FIG. 3A
Description: (§1) Two murine models of human PC were generated, a subcutaneous (SC) model of PSMA+PC3-PIP and PSMA-PC3-flu cells and a metastatic model of PSMA+ PC3ML/PSMA/fLuc in NOD/SCID/IL-2rγ−/− (NSG) mice. Single intravenous injection of different doses (FIG. 3) was given to each animal and the tumor progression was monitored by measuring the SC tumor volume or by performing bioluminescence imaging for the metastatic model.

PSMA− PC3-flu = test: Efficacy in subcutaneous (SC) PSMA− PC3-flu model; format: in vivo, NOD/SCID/IL-2rγ−/− (NSG) mice; conditions: single intravenous injection of different doses; FIG. 3A
Description: as §1

CD-1 mice = test: Long-term toxicity in healthy immunocompetent mice; format: in vivo; conditions: 1.48 MBq, 0.74 MBq, 0.244 MBq; up to 4 months after treatment
[3] = system: PSMA + PC3-PIP and PSMA-PC3-flu flank xenografts; conditions: previously shown, Mease et al., 2018; cited from earlier work
[4] = 21-24 Hour (footnote b), + 0.25 nmole YC-I-27
[5] = 21-24 Hour (footnote b), no blocker

In the case of O=C([O-])CN1CCN(CC(=O)[O-])CCN(CC(=O)NCCCCC(=O)N(CCCC[C@H](NC(=O)N[C@@H](CCC(=O)O)C(=O)O)C(=O)O)Cc2ccc([211At])cc2)CCN(CC(=O)[O-])CC1.[Lu+3] [[^211At]VK-02-90-Lu], the “Biodistribution, Blood” value ([1]; 1 Hour, 0.5 nmole YC-I-27) is reported as 0.5 ± 0.1 % injected dose/g, the “Biodistribution, Flu tumor” value ([1]; 1 Hour, 0.5 nmole YC-I-27) is reported as 0.4 ± 0.1 % injected dose/g and the “Biodistribution, PIP tumor” value ([1]; 1 Hour, 0.5 nmole YC-I-27) is reported as 25.4 ± 4.4 % injected dose/g. The “Biodistribution, Spleen” value ([1]; 1 Hour, 0.5 nmole YC-I-27) was 0.3 ± 0.4 % injected dose/g, the “Biodistribution, Stomach” value ([1]; 1 Hour, 0.5 nmole YC-I-27) was 0.4 ± 0.2 % injected dose/g and the “Biodistribution, kidney” value ([1]; 1 Hour, 0.5 nmole YC-I-27) was 2.2 ± 0.6 % injected dose/g. The “Biodistribution, lacrimal gland” value ([1]; 1 Hour, 0.5 nmole YC-I-27) was 0 % injected dose/g, the “Biodistribution, salivary gland” value ([1]; 1 Hour, 0.5 nmole YC-I-27) was 0.4 ± 0.15 % injected dose/g and the “Biodistribution, Blood” value ([1]; 1 Hour, + 0.25 nmole YC-I-27) was 0.6 ± 0.04 % injected dose/g. The “Biodistribution, Flu tumor” value ([1]; 1 Hour, + 0.25 nmole YC-I-27) was 0.4 ± 0.1 % injected dose/g, the “Biodistribution, PIP tumor” value ([1]; 1 Hour, + 0.25 nmole YC-I-27) was 34.2 ± 7.8 % injected dose/g and the “Biodistribution, Spleen” value ([1]; 1 Hour, + 0.25 nmole YC-I-27) was 0.5 ± 0.4 % injected dose/g. For the same molecule, the “Biodistribution, Stomach” value ([1]; 1 Hour, + 0.25 nmole YC-I-27) was 0.4 ± 0.2 % injected dose/g, the “Biodistribution, kidney” value ([1]; 1 Hour, + 0.25 nmole YC-I-27) was 5.0 ± 1.6 % injected dose/g and the “Biodistribution, lacrimal gland” value ([1]; 1 Hour, + 0.25 nmole YC-I-27) was 0.1 ± 0.4 % injected dose/g. For the same molecule, the “Biodistribution, salivary gland” value ([1]; 1 Hour, + 0.25 nmole YC-I-27) was 0.4 ± 0.15 % injected dose/g, the “Biodistribution, Blood” value ([1]; 1 Hour, no blocker) was 0.8 ± 0.2 % injected dose/g and the “Biodistribution, Flu tumor” value ([1]; 1 Hour, no blocker) was 0.4 ± 0.2 % injected dose/g. For the same molecule, the “Biodistribution, PIP tumor” value ([1]; 1 Hour, no blocker) was 30.6 ± 4.8 % injected dose/g, the “Biodistribution, Spleen” value ([1]; 1 Hour, no blocker) was 2.5 ± 0.9 % injected dose/g and the “Biodistribution, Stomach” value ([1]; 1 Hour, no blocker) was 0.4 ± 0.1 % injected dose/g. The “Biodistribution, kidney” value ([1]; 1 Hour, no blocker) was 90 ± 43 % injected dose/g, the “Biodistribution, lacrimal gland” value ([1]; 1 Hour, no blocker) was 0.8 ± 0.9 % injected dose/g and the “Biodistribution, salivary gland” value ([1]; 1 Hour, no blocker) was 0.5 ± 0.2 % injected dose/g. For the same molecule, the “Biodistribution, Blood” value ([1]; 4 H, 0.5 nmole YC-I-27) was 0.2 ± 0.1 % injected dose/g, the “Biodistribution, Flu tumor” value ([1]; 4 H, 0.5 nmole YC-I-27) was 0.1 ± 0.04 % injected dose/g and the “Biodistribution, PIP tumor” value ([1]; 4 H, 0.5 nmole YC-I-27) was 18.7 ± 5.4 % injected dose/g. For the same molecule, the “Biodistribution, Spleen” value ([1]; 4 H, 0.5 nmole YC-I-27) was 0.8 ± 0.5 % injected dose/g, the “Biodistribution, Stomach” value ([1]; 4 H, 0.5 nmole YC-I-27) was 0.4 ± 0.05 % injected dose/g and the “Biodistribution, kidney” value ([1]; 4 H, 0.5 nmole YC-I-27) was 0.7 ± 0.1 % injected dose/g. The “Biodistribution, lacrimal gland” value ([1]; 4 H, 0.5 nmole YC-I-27) was 0 % injected dose/g, the “Biodistribution, salivary gland” value ([1]; 4 H, 0.5 nmole YC-I-27) was 0.3 ± 0.2 % injected dose/g and the “Biodistribution, Blood” value ([1]; 4 H, + 0.25 nmole YC-I-27) was 0.2 ± 0.1 % injected dose/g. For the same molecule, the “Biodistribution, Flu tumor” value ([1]; 4 H, + 0.25 nmole YC-I-27) was 0.1 ± 0.2 % injected dose/g, the “Biodistribution, PIP tumor” value ([1]; 4 H, + 0.25 nmole YC-I-27) was 27.8 ± 8.7 % injected dose/g and the “Biodistribution, Spleen” value ([1]; 4 H, + 0.25 nmole YC-I-27) was 0.1 ± 0.5 % injected dose/g. For the same molecule, the “Biodistribution, Stomach” value ([1]; 4 H, + 0.25 nmole YC-I-27) was 0.5 ± 0.3 % injected dose/g, the “Biodistribution, kidney” value ([1]; 4 H, + 0.25 nmole YC-I-27) was 1.4 ± 0.3 % injected dose/g and the “Biodistribution, lacrimal gland” value ([1]; 4 H, + 0.25 nmole YC-I-27) was 0.4 ± 0.4 % injected dose/g. The “Biodistribution, salivary gland” value ([1]; 4 H, + 0.25 nmole YC-I-27) was 0.2 ± 0.1 % injected dose/g, the “Biodistribution, Blood” value ([1]; 4 H, no blocker) was 0.1 ± 0.03 % injected dose/g and the “Biodistribution, Flu tumor” value ([1]; 4 H, no blocker) was 0.1 ± 0.1 % injected dose/g. For the same molecule, the “Biodistribution, Spleen” value ([1]; 4 H, no blocker) was 0 % injected dose/g, the “Biodistribution, Stomach” value ([1]; 4 H, no blocker) was 0.3 ± 0.2 % injected dose/g and the “Biodistribution, kidney” value ([1]; 4 H, no blocker) was 2.1 ± 0.6 % injected dose/g. The “Biodistribution, lacrimal gland” value ([1]; 4 H, no blocker) was 0.3 ± 1.1 % injected dose/g, the “Biodistribution, salivary gland” value ([1]; 4 H, no blocker) was 0.2 ± 0.1 % injected dose/g and the “Biodistribution, Blood” value [1, 4] was 0.3 ± 1.0 % injected dose/g. For the same molecule, the “Biodistribution, Flu tumor” value [1, 4] was 0.04 ± 0.2 % injected dose/g, the “Biodistribution, PIP tumor” value [1, 4] was 15.3 ± 8.0 % injected dose/g and the “Biodistribution, Spleen” value [1, 4] was 0 % injected dose/g. For the same molecule, the “Biodistribution, Stomach” value [1, 4] was 0.3 ± 0.4 % injected dose/g, the “Biodistribution, kidney” value [1, 4] was 0.3 ± 0.4 % injected dose/g and the “Biodistribution, lacrimal gland” value [1, 4] was 0 % injected dose/g. The “Biodistribution, salivary gland” value [1, 4] was 0 % injected dose/g, the “Biodistribution, Blood” value [1, 5] was 0 % injected dose/g and the “Biodistribution, Flu tumor” value [1, 5] was 0 % injected dose/g. For the same molecule, the “Biodistribution, PIP tumor” value [1, 5] was 9.5 ± 1.0 % injected dose/g, the “Biodistribution, Spleen” value [1, 5] was 0 % injected dose/g and the “Biodistribution, Stomach” value [1, 5] was 0 % injected dose/g. For the same molecule, the “Biodistribution, kidney” value [1, 5] was 0.02 ± 0.2 % injected dose/g, the “Biodistribution, lacrimal gland” value [1, 5] was 0 % injected dose/g and the “Biodistribution, salivary gland” value [1, 5] was 0 % injected dose/g. For the same molecule, the “Biodistribution, Blood” value ([1]; 21-24 Hour, 0.5 nmole YC-I-27) was 0.03 ± 0.3 % injected dose/g, the “Biodistribution, Flu tumor” value ([1]; 21-24 Hour, 0.5 nmole YC-I-27) was 0.2 ± 0.3 % injected dose/g and the “Biodistribution, PIP tumor” value ([1]; 21-24 Hour, 0.5 nmole YC-I-27) was 17.5 ± 7.9 % injected dose/g. The “Biodistribution, Spleen” value ([1]; 21-24 Hour, 0.5 nmole YC-I-27) was 2.5 ± 4.3 % injected dose/g, the “Biodistribution, Stomach” value ([1]; 21-24 Hour, 0.5 nmole YC-I-27) was 0.4 ± 0.7 % injected dose/g and the “Biodistribution, kidney” value ([1]; 21-24 Hour, 0.5 nmole YC-I-27) was 0.4 ± 0.5 % injected dose/g. For the same molecule, the “Biodistribution, lacrimal gland” value ([1]; 21-24 Hour, 0.5 nmole YC-I-27) was 0 % injected dose/g, the “Biodistribution, salivary gland” value ([1]; 21-24 Hour, 0.5 nmole YC-I-27) was 0 % injected dose/g and the “kidney and stomach uptake” value ([1]; compared to other At-211 labeled PSMA inhibitors) was “lower kidney and stomach uptake”. For the same molecule, the Stomach uptake ([2]; @ 1 h) was 0.4±0.2 % ID/g, the “retention, K” value ([2]; @1 h, co-injection of DCIBzL) was 2.2±0.6 % ID/g and the “retention, LG” value ([2]; @1 h, co-injection of DCIBzL) was “below detection”. For the same molecule, the “retention, SG” value ([2]; @1 h, co-injection of DCIBzL) was 0.4±0.15 % ID/g, the Stomach uptake ([2]; @ 4 h) was 0.4±0.05 % ID/g and the Stomach uptake ([2]; @ 24 h) was 0.4±0.7 % ID/g. For the same molecule, the “^211At uptake in PSMA+ PC3-PIP xenografts” value ([2]; combined with DCIBzL) was 25.4±4.4 % ID/g, the deastatination in vivo ([2]; mouse, in vivo, listed as [^211At]3) was “negligible deastatination; also recorded: no evidence of deastatination in vivo” and the “response in PSMA+ PC3-PIP SC model (SC tumor volume)” value (PSMA+ PC3-PIP) was “dose-dependent response; also recorded: dose-dependent efficacy”. For the same molecule, the “effect on PSMA− PC3-flu SC model” value (PSMA− PC3-flu) was “no effect”, the “treatment-related toxicity (overall health status and urinalysis)” value (CD-1 mice) was “No CD-1 animals showed treatment-related toxicity” and the renal clearance [3] was “rapid renal clearance”. For the same molecule, the “retention in PSMA+tumors” value [3] was “persistent retention”.
